Assay results from patent EP3381898A1, “SYMMETRICAL TRIS-ARYL-AMIDE DERIVATIVES AND THEIR USE AS ANTI-HEPARANASE” (priority 2017, dated 2018).

Assays:
[1] = tested on: HT1080 (human fibrosarcoma); test: SRB Cell Cytotoxicity Assay (cell proliferation, 72h); format: cell-based; details: HT-1080, 72 h, read-out: Concentration (µM) of test compounds at which the cell growth is inhibited by 50 %. HT1080
Method: (§1) SRB Cell Cytotoxicity Assay is an assay based upon the quantitative staining of cellular proteins by sulforhodamine B (SRB). This assay can be used for high-throughput drug screening ([…], Nature Protocol. 2006, 1, 112). Sulforhodamine B is an anionic aminoxanthene dye that forms an electrostatic complex with the basic amino acid residues of proteins under moderately acid conditions, which provides a sensitive linear response. […] Inhibition of cell proliferation was then measured by the classical colorimetric SRB Cell Cytotoxicity assay. Absorbance was measured by spectrophotometer at a wavelength of 510 nm and cell proliferation was determined as percent with respect to control cells (cells treated with the vehicle alone). EC50 values were then determined by GraphPad Prism.

[2] = tested on: U2OS (human osteosarcoma); test: as above; format: cell-based; details: 72 h, read-out: Concentration (µM) of test compounds at which the cell growth is inhibited by 50 %. U2OS
Method: as §1

[3] = tested on: U87MG (human glioblastoma astrocytoma); test: as above; format: cell-based; details: U-87 MG, 72 h, read-out: Concentration (µM) of test compounds at which the cell growth is inhibited by 50 %. U87MG
Method: as §1

[4] = tested on: HT1080 (human fibrosarcoma); test: Matrigel cell invasion assay; format: cell-based; details: HT-1080, read-out: Invasion Assay Inhibition HT1080
Method: (§2) Heparanase inhibitors were then evaluated for their activity on the invasive potential of HT1080 (human fibrosarcoma), U87MG (human glioblastoma astrocytoma) and U2OS (human osteosarcoma) human cell lines, using the Matrigel cell invasion assay which allows to assess the cell invasion ability of malignant and normal cells.
(§3) Invasion assay was performed using BioCoat cell culture inserts (BioCoat 8.0µm PET Membrane 24 Well Permeable Supports, Corning). Filters were coated with 100 µl of 300 µg/ml Matrigel dissolved in coating buffer (0.01 M Tris pH 8.0, 0.7% NaCl) (Becton-Dickinson Sciences). DMEM (Dulbecco's Modified Eagle's Medium) containing 5% FBS was added to the lower chambers. Cells were pre-treated with heparanase inhibitors for 24 h, detached and added to the upper chambers in media containing the inhibitors. Cells were allowed to invade for 24 h at 37°C in a CO2 incubator and then unmigrated cells were removed from the upper chamber with a cotton swab. The invading cells were fixed, stained with 0.1% crystal violet for 10 min at room temperature, photographed and counted under inverted microscope.
(§4) Test compounds were analyzed at fixed concentration (2.5 µM) for several fields, in duplicates. Activity of test compounds was compared to the reference compound. Activity of most interesting compound was confirmed in a second cell invasion assay. Data were expressed as the percent invasion with respect to cell migration through uncoated insert membrane.
(§5) Table 3. […] In Invasion assay, data were expressed as the percent invasion (range) with respect to cell migration through uncoated insert membrane. In Adhesion assay, data were expressed as the percent of adhesion with respect to the control (100%).

[5] = tested on: U2OS (human osteosarcoma); test: Matrigel cell invasion assay; format: cell-based; details: Homo sapiens, read-out: Invasion Assay Inhibition U2OS
Method: as §2, §3, §4, §5

[6] = tested on: U87MG (human glioblastoma astrocytoma); test: Matrigel cell invasion assay; format: cell-based; details: Homo sapiens, U-87 MG, read-out: Invasion Assay Inhibition U87MG
Method: as §2, §3, §4, §5

[7] = tested on: HT1080 (human fibrosarcoma); test: Cell adhesion assay on matrigel coated wells; format: cell-based; details: 2.5 µM, percent of adhesion with respect to the control (100%)
Method: (§6) Cell surface, non-integrin molecules such as heparan sulfate proteoglycans (HSPGs) may be involved in the regulation of early adhesive stages of cell-ECM interactions. A cell adhesion assay has been employed to determine if the newly designed heparanase inhibitors were able to interfere with adhesion properties of cancer cells.
(§7) HT1080 (human fibrosarcoma) and U87MG (human glioblastoma astrocytoma) cells were treated for 18-20 h with test compounds in complete medium supplemented with 10% FCS. Then cells were collected, washed in complete medium, and added to matrigel coated wells in triplicate, at previously identified optimal seeding density, and incubated at 37 °C in complete medium for times ranging from 15 minutes to 4h, according to the cell line. After incubation, the wells were washed three times with serum-free medium and the remaining firmly attached cells were stained with crystal-violet 0.1%. Optical density was measured at 560 nm by Victor 3 (Perkin-Elmer) plate analyzer. Each experiment was repeated three times.
as §5

[8] = tested on: U87MG (human glioblastoma astrocytoma); test: Cell adhesion assay on matrigel coated wells; format: cell-based; details: 2.5 µM, percent of adhesion with respect to the control (100%)
Method: as §6, §7, §5

FGF-1 = test: Real-Time Quantitative PCR of mRNA gene expression in HT1080 cells; format: cell-based, human; details: 24 h, 2.5 uM, mean value
Method: (§8) To evaluate the effect of heparanase inhibitors on the tumor transcription of genes encoding for proangiogenic factors, such as FGF1/2, VEGF, MMP-9, HSPE-1, the relative mRNA levels were analyzed by quantitative Real-Time Quantitative PCR.
(§9) To perform the assay, HT1080 (human fibrosarcoma) cells were cultured in complete medium containing 10%FCS (fetal calf serum). Cells were plated in 24-well plates and treated at fixed concentration (i.e., highest non-toxic concentration) of test compounds. After 24 h, cells were detached, collected and total RNA extracted by RNeasy Mini Kit (QIAGEN). Following reverse transcription step, FGF1/2, VEGF, MMP-9, HSPE-1 mRNA levels, were quantified by qPCR using the advanced Universal SYBR Green Supermix (Bio Rad) and ABI PRISM 7900HT Thermal Cycler System (Perkin Elmer), according to the manufacturer's instructions. Appropriate no-RT and non-template controls were included in each 96-well PCR reaction, and dissociation analysis was performed at the end of each run to confirm the specificity of the reaction. Relative levels of RNA were calculated using the ddCt method. Standard curve and sample data were run in duplicate. In Table 4 a mean value is reported.

FGF-2 = test: as above; format: cell-based, human; details: 24 h, 2.5 uM, mean value
Method: as §8, §9

HPSE-1 = test: as above; format: cell-based, human; details: 24 h, 2.5 uM, mean value
Method: as §8, §9

MMP-9 = test: as above; format: cell-based, human; details: 24 h, 2.5 uM, mean value
Method: as §8, §9

VEGF = test: as above; format: cell-based, human; details: 24 h, 2.5 uM, mean value
Method: as §8, §9

[9] = tested on: genes encoding for proangiogenic factors; test: Real-Time Quantitative PCR in HT1080 cells, summary statement for all factors; format: cell-based, human; details: 2.5 µM, result in words
Method: as §8
as §9, with “reported. […]” for “reported.”

Cn1cc(NC(=O)c2ccc(Oc3ccc(C(=O)Nc4cc(C(=O)Nc5cccc(CC(=O)N[C@@H](Cc6ccccc6)C(=O)O)c5)n(C)c4)cc3)cc2)cc1C(=O)Nc1cccc(CC(=O)N[C@@H](Cc2ccccc2)C(=O)O)c1 [Compound 36e, (2S,2'S)-2,2'-((2,2'-(((4,4'-((4,4'-Oxybis(benzoyl))bis(azanediyl))bis(1-methyl-1H-pyrrole-2,2'-carbonyl))bis(azanediyl))bis(3,1-phenylene))bis(acetyl))bis(azanediyl))bis(3-phenylpropanoic acid)]
EC50 [1]: > 2.5 µM | EC50 [2]: > 2.5 µM | EC50 [3]: > 2.5 µM | inhibition at 2.5 µM [4]: 50 to 90% | inhibition at 2.5 µM [5]: < 50% | inhibition at 2.5 µM [6]: 50 to 90% | Adhesion Assay (%) HT1080 [7]: 91.2% | Adhesion Assay (%) U87MG [8]: 73.0% | Gene Expression (% mRNA vs. control) FGF-1 (FGF-1): ~ 62% | Gene Expression (% mRNA vs. control) FGF-2 (FGF-2): ~ 64% | Gene Expression (% mRNA vs. control) HPSE-1 (HPSE-1): ~ 88% | Gene Expression (% mRNA vs. control) MMP-9 (MMP-9): ~ 50% | Gene Expression (% mRNA vs. control) VEGF (VEGF): ~ 51% | inhibition of genes expression encoding for proangiogenic factors [9]: significant inhibition
